Experimental data taken from US20180010188A1, “METHOD FOR DETECTING NONSENSE-MEDIATED RNA DECAY” (The Regents of the University of California, priority 2016, published 2018).

Legend:
[1] = tested on: core NMD factors; assay: Expression of core NMD factors after thapsigargin; format: cell-based, mouse; conditions: 5 hours after thapsigargin treatment (data not shown)
Source text: Thapsigargin is a non-competitive inhibitor of the sarco/endoplasmic reticulum Ca^2+ ATPase (SERCA) (Wictome et al., 1992. Biochem J 283 (Pt 2): 525-529; Lytton et al., 1991. J Biol Chem 266: 17067-17071). Thapsigargin treatment increases intracellular Ca^2+ concentration, which stimulates various Ca^2+ dependent signaling pathways. In fact, Nickless et al. recently reported that intracellular calcium inhibited NMD after administration of thapsigargin (Nickless et al. 2014. Nat Med 20: 961-966). Thapsigargin also induces ER stress. […] The diverging mechanisms reported by these studies were both based on the traditional NMD reporter approach and gene-centric validation. We therefore investigated which of the proposed mechanisms our independent method would support.

[2] = tested on: polysome integrity; assay: Polysome fractionation by sucrose density gradient centrifugation; format: cell-based, mouse; conditions: 5 hours, DMSO 30
Method: In addition to altering gene expression via the IRE1-Xbp1s signaling pathway to retain homeostasis, ER stress also reduces global protein synthesis (Harding et al., 1999. Nature 397: 271-274; Ron D. 2002. J Clin Invest 110: 1383-1388; Wek et al., 2006. Biochem Soc Trans 34: 7-11). The dose of thapsigargin inhibiting NMD was as low as 20 nM, whereas according to the literature, thapsigargin has been widely used at 1 μM to induce ER stress. To assess whether the NMD-inhibiting thapsigargin doses also repressed translation, we performed ribosome fractionation using sucrose density gradient centrifugation and examined polysome integrity as an indicator of translational activity. […] The heavier polysomes (>4 ribosomes) were affected the most and further collapsed with increasing doses of thapsigargin. Polysome disintegration was also accompanied by increasing optical density values of 80S. To quantify the dose effect of thapsigargin, we drew a line from the peak of the disome to the peak of the polysome consisting of roughly 8 ribosomes based on relative elution time. We measured the angle of this line relative to a horizontal line through the disome peak and used the angle as an indicator of polysome integrity. This angle was 30 for DMSO-treated cells and decreased to 0, −18, −20, −30 and −40 in response to increasing thapsigargin concentrations of 0.01, 0.02, 0.05, 0.1 and 0.2 μM, respectively.
For polysome fractionation, 1.5×10^7 N2a cells in 20 ml N2a complete media were plated on 150 mm petri dishes overnight and treated with varying concentrations of thapsigargin the next day. Cycloheximide (Fisher Scientific, cat. no. 50490338) was added at a concentration of 100 μg/ml, and the cells were incubated for 10 min at 37° C. before lysate collection. The cells were washed twice with 10 ml cold 1×PBS containing 100 μg/ml cycloheximide then collected in 4 ml of the same cold PBS solution. The cells were lysed with 0.5 ml lysis buffer (20 mM Tris pH 7.5, 100 mM KCl, 5 mM MgCl2, 2 mM DTT, 100 μg/ml cycloheximide, 1% Triton X-100, 50 u/ml RNaseout and 1×EDTA-free protease inhibitor cocktail). Roughly 400 μl ([…]) of lysate was loaded onto premade sucrose gradients (60% to 15%) and balanced (within 0.5 mg) before ultracentrifugation at 4° C. and 237,000 g (50,000 rpm for a SW55 Ti rotor) for 1.5 hours. Products were carefully removed from the ultracentrifuge and fractionated with the apparatus consisting of the gradient fractionator (Brandel SYN-202), the ISCO absorbance detector (ISCO # UA-6, Lincoln, Nebr.) and the fraction collector (R1 Fraction Collector) at 2.0 sensitivity and 150 cm/h chart speed to record absorbance data and collect fractionations.

**Q.** `C/C=C(/C)C(=O)O[C@H]1C(C)=C2[C@H]([C@@H]1OC(=O)CCCCCCC)[C@@](C)(OC(C)=O)C[C@H](OC(=O)CCC)[C@@]1(O)[C@H]2OC(=O)[C@@]1(C)O` [thapsigargin] was tested. Which “expression of core NMD factors” value [1] did it give?
**A.** The value was “no changes in their expression”.

**Q.** What about the “angle of disome-to-8-ribosome peak line (polysome integrity)” value (“angle of disome-to-8-ribosome peak line” for short) ([2]; 0.01 μM) of the same molecule?
**A.** Its value is 0.

**Q.** What about the “angle of disome-to-8-ribosome peak line” value ([2]; 0.02 μM) of the same molecule?
**A.** Its value is −18.

**Q.** What about the “angle of disome-to-8-ribosome peak line” value ([2]; 0.05 μM) of the same molecule?
**A.** Its value is −20.

**Q.** What about the “angle of disome-to-8-ribosome peak line” value ([2]; 0.1 μM) of the same molecule?
**A.** The value was −30.

**Q.** And the “angle of disome-to-8-ribosome peak line” value ([2]; 0.2 μM)?
**A.** The value was −40.
